Key:
[1] = system: Staphylococcus aureus 6538P; assay: MIC, two-fold agar dilution; assay type: cell-based; settings: Muller-Hinton agar, 37° C., 20 hours
[2] = system: Staphylococcus aureus giorgio; assay: MIC, two-fold agar dilution; assay type: cell-based; settings: Muller-Hinton agar, 37° C., 20 hours
Staphylococcus aureus 77 = assay: MIC, two-fold agar dilution; assay type: cell-based; settings: Muller-Hinton agar, 37° C., 20 hours
[3] = system: Staphylococcus aureus 241; assay: MIC, two-fold agar dilution; assay type: cell-based; settings: Muller-Hinton agar, 37° C., 20 hours
[4] = system: Staphylococcus epidermidis 887E; assay: MIC, two-fold agar dilution; assay type: cell-based; settings: Muller-Hinton agar, 37° C., 20 hours
[5] = system: Streptococcus laecalis 29212A; assay: MIC, two-fold agar dilution; assay type: cell-based; settings: Muller-Hinton agar, 37° C., 20 hours
E. coli 10536 = assay: MIC, two-fold agar dilution; assay type: cell-based; settings: Muller-Hinton agar, 37° C., 20 hours
E. coli 3190Y = assay: MIC, two-fold agar dilution; assay type: cell-based; settings: Muller-Hinton agar, 37° C., 20 hours
E. coli 851E = assay: MIC, two-fold agar dilution; assay type: cell-based; settings: Muller-Hinton agar, 37° C., 20 hours
E. coli TEM1 1193E = assay: MIC, two-fold agar dilution; assay type: cell-based; settings: Muller-Hinton agar, 37° C., 20 hours
E. coli TEM3 3455E = assay: MIC, two-fold agar dilution; assay type: cell-based; settings: Muller-Hinton agar, 37° C., 20 hours
E. coli TEM5 3739E = assay: MIC, two-fold agar dilution; assay type: cell-based; settings: Muller-Hinton agar, 37° C., 20 hours
E. coli TEM7 3457E = assay: MIC, two-fold agar dilution; assay type: cell-based; settings: Muller-Hinton agar, 37° C., 20 hours
E. coli TEM9 2639E = assay: MIC, two-fold agar dilution; assay type: cell-based; settings: Muller-Hinton agar, 37° C., 20 hours
[6] = system: Pseudomonas aeruginosa 1912E; assay: MIC, two-fold agar dilution; assay type: cell-based; settings: Muller-Hinton agar, 37° C., 20 hours
[7] = system: Pseudomonas aeruginosa 10145; assay: MIC, two-fold agar dilution; assay type: cell-based; settings: Muller-Hinton agar, 37° C., 20 hours
[8] = system: Pseudomonas aeruginosa 6065; assay: MIC, two-fold agar dilution; assay type: cell-based; settings: Muller-Hinton agar, 37° C., 20 hours
[9] = system: Acinetobacter calcoaceticus 15473A; assay: MIC, two-fold agar dilution; assay type: cell-based; settings: Muller-Hinton agar, 37° C., 20 hours
[10] = system: Citrobacter diversus 2046E; assay: MIC, two-fold agar dilution; assay type: cell-based; settings: Muller-Hinton agar, 37° C., 20 hours
[11] = system: Enterobacter cloacae IND + VE 1194E; assay: MIC, two-fold agar dilution; assay type: cell-based; settings: Muller-Hinton agar, 37° C., 20 hours
Enterobacter cloacae P99 = assay: MIC, two-fold agar dilution; assay type: cell-based; settings: Muller-Hinton agar, 37° C., 20 hours
[12] = system: Klebsiella aerogenes SHV-1 1976E; assay: MIC, two-fold agar dilution; assay type: cell-based; settings: Muller-Hinton agar, 37° C., 20 hours
[13] = system: Klebsiella aerogenes K1 + 1082E; assay: MIC, two-fold agar dilution; assay type: cell-based; settings: Muller-Hinton agar, 37° C., 20 hours
Proteus vularis 6059A = assay: MIC, two-fold agar dilution; assay type: cell-based; settings: Muller-Hinton agar, 37° C., 20 hours
[14] = system: Serratia marcescens 1826E; assay: MIC, two-fold agar dilution; assay type: cell-based; settings: Muller-Hinton agar, 37° C., 20 hours
[15] = system: Salmonella typhimurium 14028A; assay: MIC, two-fold agar dilution; assay type: cell-based; settings: Muller-Hinton agar, 37° C., 20 hours
[16] = pharmakinetic variables in SD rats; settings: rat, in vivo, iv, 20 mg/kg
Method: The pharmakinetic variables were determined using SD rats (.male.) of a body weight of 230±10g as follows. The "S" compound of each of the Examples was injected to femoral vein of 4-5 rats by 20mg/Kg and then blood was collected from femoral artery in 1, 2.5, 5, 10, 20, 40, 60 and 120 min.

Structure (SMILES): Nc1cc(SCC2=C(C(=O)O)N3C(=O)[C@@H](NC(=O)/C(=N\O[C@H](C(=O)O)c4ccc(O)c(O)c4)c4csc(N)n4)[C@H]3SC2)ncn1 [Compound I-7S, 7[-(Z)-2-(aminothiazol-4-yl)-2-(α-carboxy-3,4-dihydroxybenzyloxyimino)acetamido]-3-(6-amino-pyrimidine-4-yl)thiomethyl-3cephem-4-carboxylate]
- minimal inhibitory concentration (MIC) [1]: 2
- minimal inhibitory concentration (MIC) [2]: 1
- minimal inhibitory concentration (MIC) (Staphylococcus aureus 77): 4
- minimal inhibitory concentration (MIC) [3]: 64
- minimal inhibitory concentration (MIC) [4]: 32
- minimal inhibitory concentration (MIC) [5]: 2
- minimal inhibitory concentration (MIC) (E. coli 10536): ≤ 0.008
- minimal inhibitory concentration (MIC) (E. coli 3190Y): 0.031
- minimal inhibitory concentration (MIC) (E. coli 851E): 0.063
- minimal inhibitory concentration (MIC) (E. coli TEM1 1193E): 0.063
- minimal inhibitory concentration (MIC) (E. coli TEM3 3455E): 0.016
- minimal inhibitory concentration (MIC) (E. coli TEM5 3739E): 0.063
- minimal inhibitory concentration (MIC) (E. coli TEM7 3457E): 0.016
- minimal inhibitory concentration (MIC) (E. coli TEM9 2639E): 0.13
- minimal inhibitory concentration (MIC) [6]: 0.25
- minimal inhibitory concentration (MIC) [7]: 0.25
- minimal inhibitory concentration (MIC) [8]: 0.5
- minimal inhibitory concentration (MIC) [9]: 0.13
- minimal inhibitory concentration (MIC) [10]: 0.063
- minimal inhibitory concentration (MIC) [11]: 2
- minimal inhibitory concentration (MIC) (Enterobacter cloacae P99): 8
- minimal inhibitory concentration (MIC) [12]: 0.25
- minimal inhibitory concentration (MIC) [13]: 0.063
- minimal inhibitory concentration (MIC) (Proteus vularis 6059A): 0.25
- minimal inhibitory concentration (MIC) [14]: 0.25
- minimal inhibitory concentration (MIC) [15]: 0.016
- AUC at 2 h [16]: 60000 ng·h/mL
- half-life [16]: 59 min
